The target in assay [1] is T1, Focal Adhesion Kinase (full-length Flag-tagged human FAK) (Homo sapiens, UniProt Q05397).
T1 construct: a purified recombinant full-length Flag-tagged human FAK protein; Flag; made in house; host or cells: baculovirus infected insect cells
Description: in vitro FAK ELISA kinase assay. The class given is biochemical. Particulars: compound 10 uM; ATP 2 uM; read-out: FAK % Inhib ave: 10 uM. The protocol:
Compound effects on the tyrosine kinase activity of Focal Adhesion Kinase were assessed with an in vitro FAK ELISA kinase assay. This assay measures the incorporation of phosphate from ATP into a FAK substrate protein using an antibody specific for phospho-tyrosine.
500 ng of FAKsubstrate, a purified recombinant fusion protein of GST and a 73 amino acid region surrounding the Tyr397 human FAK autophosphorylation site, was coated in a high-protein binding polystyrene 96 well plate overnight in a buffer containing 50 mM Hepes, pH 7.5, 150 mM NaCl, 0.1 mM Na-oVO4, 0.1 mM NaF and 1 protease inhibitor tablet/10 mL (Complete Mini-EDTA-free, Roche). The next day this solution was removed and the wells were incubated with 0.2% BSA in 50 mM Hepes, pH 7.5, 150 mM NaCl, 0.2 mM PMSF for 1 hour at 30° C. to block unoccupied protein binding sites. The wells were then washed with 50 mM Hepes, pH 7.5, 150 mM NaCl, 0.1% Tween 20. The kinase reaction was performed with 25 ng/well of FAK enzyme (a purified recombinant full-length Flag-tagged human FAK protein made in baculovirus infected insect cells) in 0.1 mL of a buffer containing 25 mM Hepes, pH 7.5, 5 mM MgCl2, 0.5 mM MnCl2, 10 uM NaoVO4, 0.2 mM PMSF. Compounds were added from 30% DMSO stock solutions for a screening concentration of 10 uM or IC50 determinations from 50 uM in half-log dilutions. The reaction is initiated with addition of ATP to a final concentration of 2 uM and incubated at 30° C. for 1 hour. Following the kinase reaction step, the wells were washed and incubated with 50 ng of Horseradish Peroxidase conjugated anti-phosphotyrosine antibody (PT-66 HRP, Sigma) in 0.1 mL wash buffer for 1 hour at 30° C. Wells were then washed and 0.1 mL HRP substrate, Tetra-methyl Benzidine (Sigma) was added and the color reaction allowed to proceed for 2-3 minutes followed by the addition of 0.1 mL of 1N H2SO4 to stop the HRP reaction. Percent inhibition of FAK kinase activity was calculated by comparing compound containing wells to wells treated with diluent only. Background was subtracted from all wells and was defined as the activity of FAK using 500 ng/well of BSA as a substrate. IC50 values were obtained using Prism data analysis software.

The target in assay [2] is T2, CAK complex (human Cdk7, human Cyclin H, MAT-1) (Homo sapiens, UniProt P50613).
T2 construct: made in house; host or cells: SF-900 insect cells co-infected with Flag-Cdk7 and Bab-Cyclin H baculoviruses
The assay is described as follows: in vitro time-resolved-fluorescence assay for the CAK kinase activity. It is filed as biochemical. As to conditions: compound 20 uM; read-out: CAK % inhib; 20 uM. The text has this: Cyclin Dependent Kinase Activating Kinase (CAK) is a complex of proteins that phosphorylates a well-conserved threonine (Thr) residue in all mammalian cyclin dependent kinases (cdks). The CAK complex can also phosphorylate several components of the transcriptional machinery, such as the C-terminal domain (CTD) of RNA polymerase II in the TFIIH transcription complex. The CAK complex localizes to the nucleus, and is composed of three proteins: Cdk7, Cyclin H, and MAT-1. The exemplified method teaches the cloning and expression CAK subunits, particularly a human Cdk7 and a human Cyclin H. The method of the present invention exemplified herein is equally applicable to the cloning and expression of any CAK subunit, such as variants, structural or functional polymorphisms of the human Cdk7 or the human Cyclin H, or their orthologs in other animals such as rat, mouse, pig, dog and monkey.
The CAK complex was purified from co-infected SF-900 insect cells at 48 hours post infection by batch immunoaffinity purification. The infected cells were pelleted by centrifugation and lysed in 1/10 of the culture volume in a solution containing 50 mM Hepes pH 7.5, 10 mM MgCl2, 1 mM DTT, 10 mM Beta-Glycerol phosphate, 20 uM Na-oVO4, 0.2 mM PMSF and 1 μg/mL each of leupeptin, aprotinin, and pepstatin on ice. Cells were mechanically lysed by trituration through a 22-gauge needle followed by sonication or alternately by nitrogen cavitation. The lysed cells were centrifuged at 50,000×G for 1 hour at 4° C. to remove debris and the supernatant was applied to 1/10 volume of prewashed Flag-M2 immunoaffinity resin (Sigma). The CAK complex, by nature of the Flag tagged Cdk7 protein, was allowed to bind to the Flag antibody of the resin overnight at 4° C. with gentle rocking. The resin was washed 4 times with 5 resin volumes of lysis buffer and the bound proteins were eluted by competition with 0.5 mg/mL Flag peptide ([…], American Peptide Co, Inc., SEQ ID NO: 16) in a total of 2 resin volumes. To remove the Flag peptide, the eluted material was applied to PD-10 gel filtration columns (Pharmacia) under conditions recommended by the manufacturer.
Measurement of CAK kinase activity was accomplished using an antibody methodology in which a Europium labeled antibody binds preferentially to serine phosphorylated GST-CTD substrate. The long-lived europium label fluorescence allows a greater signal-to-noise ratio due to the delay in reading the emission wavelength, thereby eliminating signals from immediate fluorescence and fluorescent pharmaceutical screening compounds.
The time-resolved-fluorescence assay for the CAK kinase activity is performed as follows. In a well of a black glutathione coated 96 well micro titer plate (Pierce Chemical, No. 15360), the following reagents were added: 1) 25 ul substrate solution containing 500 ng purified GST-CTD in a buffer having 50 mM Hepes pH 7.5, 10 mM MgCl2, 1 mM DTT, 0.2 mM PMSF, 40 uM Na-oVO4, and 22 uM ATP (as a background control, the buffer, including ATP but not substrate was added); 2) 2.5 ul of screening compounds in a diluent containing 30% DMSO/25 mM Hepes pH7.5 (As a control, the diluent only was added. Typically the final concentration of compound is 1 uM); and 3) 250 ng CAK enzyme complex in enzyme buffer containing 25 ul of 50 mM Hepes pH 7.5, 10 mM MgCl2, 1 mM DTT, 0.2 mM PMSF, and 40 uM Na-oVO4. The micro titer plate was shaken for 2 minutes on a titer plate shaker and allowed to incubate at 30° C. for 20 minutes.
Subsequently, Kinase Stop Solution (75 mM EDTA, 0.2 mM PMSF, 1 mM DTT, 120 uM Na oVO4 in PBS) was added (50 ul/well). The plate was shaken for 2 minutes and incubated overnight at room temperature to allow substrate binding to the wells. The plate contents were flicked out, and the wells of the plate were washed 4 times with 350 ul of wash buffer (Delphia wash buffer, Perkin-Elmer, Inc.). The plate was tapped dry. […]

The structures appear in SMILES notation.

T2 sequence (P50613 with tags, fused parts or gaps): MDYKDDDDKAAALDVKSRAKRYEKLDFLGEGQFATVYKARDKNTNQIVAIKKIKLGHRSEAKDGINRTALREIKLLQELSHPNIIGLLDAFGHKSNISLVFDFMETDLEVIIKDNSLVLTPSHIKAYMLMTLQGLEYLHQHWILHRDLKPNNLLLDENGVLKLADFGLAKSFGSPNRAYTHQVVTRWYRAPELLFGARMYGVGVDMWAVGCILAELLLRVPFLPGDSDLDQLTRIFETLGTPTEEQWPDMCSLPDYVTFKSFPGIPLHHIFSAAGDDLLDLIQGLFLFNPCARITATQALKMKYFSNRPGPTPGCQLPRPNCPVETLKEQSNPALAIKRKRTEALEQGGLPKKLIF
T2 sequence (as listed by the source partner): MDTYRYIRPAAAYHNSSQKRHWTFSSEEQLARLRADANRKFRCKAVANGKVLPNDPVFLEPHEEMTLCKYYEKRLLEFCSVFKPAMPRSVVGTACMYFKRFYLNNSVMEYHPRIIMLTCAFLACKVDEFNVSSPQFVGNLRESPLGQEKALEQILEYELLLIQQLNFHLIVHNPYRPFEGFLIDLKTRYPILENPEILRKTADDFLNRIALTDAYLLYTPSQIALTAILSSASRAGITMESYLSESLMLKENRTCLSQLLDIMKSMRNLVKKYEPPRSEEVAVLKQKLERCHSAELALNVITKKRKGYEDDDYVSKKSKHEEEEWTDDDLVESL
T1 sequence (Q05397 whole entry): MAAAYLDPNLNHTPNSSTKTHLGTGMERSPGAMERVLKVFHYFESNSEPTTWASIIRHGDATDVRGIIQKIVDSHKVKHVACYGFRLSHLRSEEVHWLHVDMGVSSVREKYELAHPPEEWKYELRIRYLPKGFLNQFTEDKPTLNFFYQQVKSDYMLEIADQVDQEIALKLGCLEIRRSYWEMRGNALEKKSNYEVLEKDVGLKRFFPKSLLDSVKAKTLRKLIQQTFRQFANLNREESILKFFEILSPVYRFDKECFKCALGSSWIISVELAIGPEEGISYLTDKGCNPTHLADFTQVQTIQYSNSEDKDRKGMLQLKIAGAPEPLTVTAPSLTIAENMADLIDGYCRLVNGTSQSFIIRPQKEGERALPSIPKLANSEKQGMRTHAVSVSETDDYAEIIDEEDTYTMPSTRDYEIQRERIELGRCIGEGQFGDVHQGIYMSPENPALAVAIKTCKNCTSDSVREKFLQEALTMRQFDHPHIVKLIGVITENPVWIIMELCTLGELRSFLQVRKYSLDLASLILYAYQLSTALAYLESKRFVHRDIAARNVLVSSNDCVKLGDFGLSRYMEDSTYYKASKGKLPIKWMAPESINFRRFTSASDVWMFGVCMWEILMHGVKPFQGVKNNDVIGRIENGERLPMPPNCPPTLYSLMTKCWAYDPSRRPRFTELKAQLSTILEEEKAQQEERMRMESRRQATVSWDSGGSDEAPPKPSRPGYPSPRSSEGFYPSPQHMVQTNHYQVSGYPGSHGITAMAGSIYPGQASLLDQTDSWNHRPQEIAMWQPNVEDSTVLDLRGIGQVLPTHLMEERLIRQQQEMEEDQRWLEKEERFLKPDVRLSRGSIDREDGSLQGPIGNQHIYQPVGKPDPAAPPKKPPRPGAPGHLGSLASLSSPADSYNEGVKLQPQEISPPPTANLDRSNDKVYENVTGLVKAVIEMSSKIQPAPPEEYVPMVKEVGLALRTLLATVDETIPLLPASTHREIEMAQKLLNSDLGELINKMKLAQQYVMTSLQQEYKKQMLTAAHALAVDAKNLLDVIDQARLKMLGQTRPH

With `CN(C)CC(O)COc1ccc(Nc2ncc3nnn(-c4ccc5c(c4)CCC5)c3n2)cc1` (centres unmarked) [Compound 1, 1-Dimethylamino-3-[4-(3-indan-5-yl-3H-[1,2,3]triazolo[4,5-d]pyrimidin-5-ylamino)-phenoxy]-propan-2-ol], the inhibition at 10 µM in assay [1] is 93.6%. For the same compound, the inhibition at 20 µM in assay [2] is 102%.
Turning to `COc1ccc(-n2nnc3cnc(Nc4ccc(OCC(O)CN(C)C)cc4)nc32)cc1OC` (centres unmarked) [Compound 3, 1-{4-[3-(3,4-Dimethoxy-phenyl)-3H-[1,2,3]triazolo[4,5-d]pyrimidin-5-ylamino]-phenoxy]-3-dimethylamino-propan-2-ol], the inhibition at 10 µM in assay [1] was determined as 53.2%.
On to `CN(C)CCCOc1ccc(Nc2ncc3nnn(-c4ccc5c(c4)CCC5)c3n2)cc1` [Compound 4, [4-(3-Dimethylamino-propoxy)-phenyl]-(3-indan-5-yl-3H-[1,2,3]triazolo[4,5-d]pyrimidin-5-yl)-amine], for which, in assay [1], the inhibition at 10 µM stood at 95%.
Take `CCCCCOc1ccc(Nc2ncc3nnn(-c4ccc5c(c4)CCC5)c3n2)cc1` [Compound 5, (3-Indan-5-yl-3H-[1,2,3]triazolo[4,5-d]pyrimidin-5-yl)-(4-pentyloxy-phenyl)-amine]: the inhibition at 10 µM in assay [1] is 12.4%. Moreover, the inhibition at 20 µM in assay [2] stood at 25.9%.
Taken in the same sequence, the figures for `CC(C)(C)OC(=O)N1CCC(CNc2ncc3nnn(-c4ccc5c(c4)CCC5)c3n2)CC1` [Compound 6, 4-[(3-Indan-5-yl-3H-[1,2,3]triazolo[4,5-d]pyrimidin-5-ylamino)-methyl]-piperidine-1-carboxylic acid tert-butyl ester] were 73% and 28.9%.
Taken in the same sequence, the figures for `CN(C)c1ccc(/C=C/c2ccc(Nc3ncc4nnn(-c5ccc6c(c5)CCC6)c4n3)cc2)cc1` [Compound 7, {4-[2-(4-Dimethylamino-phenyl)-vinyl]-phenyl}-(3-indan-5-yl-3H-[1,2,3]triazolo[4,5-d]pyrimidin-5-yl)-amine] were -5% and 38.7%.
Consider `CN(C)CC(O)COc1ccc(Nc2ncc3nnn(-c4ccccc4)c3n2)cc1` (centres unmarked) [Compound 8, 1-Dimethylamino-3-[4-(3-phenyl-3H-[1,2,3]triazolo[4,5-d]pyrimidin-5-ylamino)-phenoxy]-propan-2-ol], for which the inhibition at 10 µM in assay [1] came to 77.4%. In addition, the inhibition at 20 µM in assay [2] is 92.2%.
With `CN(C)CC(O)COc1ccc(Nc2ncc3nnn(C4CCCCC4)c3n2)cc1` (centres unmarked) [Compound 9, 1-[4-(3-Cyclohexyl-3H-[1,2,3]triazolo[4,5-d]pyrimidin-5-ylamino)-phenoxy]-3-dimethylamino-propan-2-ol], the inhibition at 10 µM in assay [1] worked out at 23%. Also, the inhibition at 20 µM in assay [2] is 85.9%.
Taken in the same sequence, the figures for `CN(C)CC(O)COc1ccc(Nc2ncc3nnn(-c4cccc(C#N)c4)c3n2)cc1` (centres unmarked) [Compound 10, 3-{5-[4-(3-Dimethylamino-2-hydroxy-propoxy)-phenylamino]-[1,2,3]triazolo[4,5-d]pyrimidin-3-yl]-benzonitrile] were 64.7% and 11.5%.
For `CN(C)CC(O)COc1ccc(Nc2ncc3nnn(-c4ccc(F)c(F)c4)c3n2)cc1` (centres unmarked) [Compound 11, 1-{4-[3-(3,4-Difluoro-phenyl)-3H-[1,2,3]triazolo[4,5-d]pyrimidin-5-ylamino]-phenoxy}-3-dimethylamino-propan-2-ol], the inhibition at 10 µM in assay [1] came out at 65.3%. For the same compound, the inhibition at 20 µM in assay [2] was found to be 56%.
Taken in the same sequence, the figures for `CN(C)CC(O)COc1ccc(Nc2ncc3nnn(-c4ccc5ccccc5c4)c3n2)cc1` (centres unmarked) [Compound 12, 1-Dimethylamino-3-[4-(3-naphthalen-2-yl-3H-[1,2,3]triazolo[4,5-d]pyrimidin-5-ylamino)-phenoxy]-propan-2-ol] were 82.9% and 92.4%.
As for `CN(C)CC(O)COc1ccc(Nc2ncc3nnn(-c4ccc5ncccc5c4)c3n2)cc1` (centres unmarked) [Compound 13, 1-Dimethylamino-3-[4-(3-quinolin-6-yl-3H-[1,2,3]triazolo[4,5-d]pyrimidin-5-ylamino)-phenoxy]-propan-2-ol], in assay [1], the inhibition at 10 µM was determined as 24.4%. The inhibition at 20 µM in assay [2] turned out to be 72.6%.
Take `CN(C)CC(O)COc1ccc(Nc2ncc3nnn(-c4ccc5ncsc5c4)c3n2)cc1` (centres unmarked) [Compound 14, 1-[4-(3-Benzothiazol-6-yl-3H-[1,2,3]triazolo[4,5-d]pyrimidin-5-ylamino)-phenoxy]-3-dimethylamino-propan-2-ol]: the inhibition at 10 µM in assay [1] stood at 76.8%. In assay [2], the inhibition at 20 µM was 42.2%.
For `CN(C)CC(O)COc1ccc(Nc2ncc3nnn(-c4ccc(C5CCCCC5)cc4)c3n2)cc1` (centres unmarked) [Compound 15, 1-{4-[3-(4-Cyclohexyl-phenyl)-3H-[1,2,3]triazolo[4,5-d]pyrimidin-5-ylamino]-phenoxy}-3-dimethylamino-propan-2-ol], the inhibition at 10 µM in assay [1] amounted to 80.5%. Further, the inhibition at 20 µM in assay [2] is 76%.
As for `CN(C)CC(O)COc1ccc(Nc2ncc3nnn(-c4ccc(N5CCOCC5)cc4)c3n2)cc1` (centres unmarked) [Compound 16, 1-Dimethylamino-3-{4-[3-(4-morpholin-4-yl-phenyl)-3H-[1,2,3]triazolo[4,5-d]pyrimidin-5-ylamino]-phenoxy}-propan-2-ol], the inhibition at 10 µM in assay [1] was 50.5%. Besides, in assay [2], the inhibition at 20 µM was determined as 83.1%.
As to `CCCCNS(=O)(=O)c1cccc(-n2nnc3cnc(Nc4ccc(OCC(O)CN(C)C)cc4)nc32)c1` (centres unmarked) [Compound 35, N-Butyl-3-{5-[4-(3-dimethylamino-2-hydroxy-propoxy)-phenylamino]-[1,2,3]triazolo[4,5-d]pyrimidin-3-yl}-benzene-sulfonamide], the inhibition at 10 µM in assay [1] worked out at 91.6%.

The values above are taken from US7563781B2, “Triazolopyrimidine derivatives” (Janssen Pharmaceutica NV, priority 2006, dated 2009).
